This is an account of results in patent publication US20260201008A1, “SECRETIN-DERIVED GLP1R SELECTIVE AGONISTS” (GUBRA A/S, priority 2023, published 2026).

In general, pEC50 refers to the negative decadic logarithm of the EC50, by convention in mol/L.

pEC50: −log10 of the molar value. Like-named read-outs stand apart in the source and are kept apart here. Numbered stars: 1 amine (or outer) side, 2 acyl side, 3 side chain; on linkers, the order of the positions; unused ones are H or OH. Square brackets hold non-standard residues; d marks the D form. Side chains are listed from the residue outwards. Peptide text beside a SMILES is read from it. * marks the point of attachment. C20 diacid = O=C(O)CCCCCCCCCCCCCCCCCCC(=O)*; γGlu = O=C(O)[C@H](CCC(=O)[*:2])N[*:1]; AEEA = NCCOCCOCC(=O)O; Aib = CC(C)(N)C(=O)O

The target of data set [1] is SCTR (Homo sapiens, UniProt P47872). Briefly: hSCTR potency, cAMP accumulation in CHO-K1 cells stably overexpressing hSCTR. Type of data set: cell-based. Also on record: alternatively Euroscreen ES-712-AF; FAST-0161L; host or cells: CHO-K1. To be noted: for EC50: cAMP accumulation, CHO-K1 cells overexpressing hSCTR. Summed up:
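Read-out is TR-FRET cAMP detection, recorded one hour after reagent addition, in CHO-K1 cells stably overexpressing hSCTR. Cells in DPBS containing 0.05% casein and 0.5 mM IBMX are exposed to graded peptide doses for 30 min at room temperature, with human secretin as reference agonist.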
(In general: Cyclic AMP is a second messenger, typically raised through Gs and lowered through Gi signalling.)

Data set [2] is described as follows: Turbidity of crude library peptides (absorbance at 600 nm). Type of data set: physicochemical. To be noted: Physical stability of peptides. Summed up: (§1)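 Crude peptides at 267 μM in 50 mM sodium acetate pH 4.0 or 50 mM sodium phosphate pH 7.0, pre-incubated 1-2 h at room temperature, then 4 μM final ThT added. Turbidity read first as A600. ThT fluorescence (ex 450/em 480 nm) read every 10 min for 72 h at 40° C, with 5 min shaking before each read; fibril formation = average emission.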

For data set [3], the target named is GLP1R (Homo sapiens, UniProt P43220). Briefly: hGLP1R potency, cAMP accumulation in CHO-K1 cells stably overexpressing hGLP1R. Type of data set: cell-based. Also on record: host or cells: CHO-K1. The settings on record: for EC50: cAMP accumulation, CHO-K1 cells overexpressing hGLP1R; for SCTR EC50/GLP1R EC50 ratio: selectivity for hGLP1R over hSCTR, cAMP accumulation in CHO-K1 cells; for Selectivity: SCTR EC50/GLP1R EC50 ratio. Summed up:
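Thawed cells go straight into buffer containing 0.5 mM IBMX and 0.05% casein, get graded compound doses for 30 min at room temperature, and are then assayed for accumulated cAMP by time-resolved FRET. Human GLP-1(7-36) serves as positive control; EC50 is derived by nonlinear regression.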

The nature of data set [4]: Fibril formation of crude library peptides (Thioflavin T). Type of data set: physicochemical. Also on record: key: average ThT fluorescence emission at 480 nm (ex 450 nm), raw units. The settings on record: Physical stability of peptides. Summed up: as §1
The mark [5] stands for this setting: read-out: hSCTR pEC50 (converted).
[6] abbreviates: read-out: hGLP1R pEC50 (converted).
Where [7] appears, read: read-out: pEC50 hSCTR (converted).
Setting [8] is: read-out: pEC50 hGLPR1 (converted).

GLP1R, sequence (P43220 24-463): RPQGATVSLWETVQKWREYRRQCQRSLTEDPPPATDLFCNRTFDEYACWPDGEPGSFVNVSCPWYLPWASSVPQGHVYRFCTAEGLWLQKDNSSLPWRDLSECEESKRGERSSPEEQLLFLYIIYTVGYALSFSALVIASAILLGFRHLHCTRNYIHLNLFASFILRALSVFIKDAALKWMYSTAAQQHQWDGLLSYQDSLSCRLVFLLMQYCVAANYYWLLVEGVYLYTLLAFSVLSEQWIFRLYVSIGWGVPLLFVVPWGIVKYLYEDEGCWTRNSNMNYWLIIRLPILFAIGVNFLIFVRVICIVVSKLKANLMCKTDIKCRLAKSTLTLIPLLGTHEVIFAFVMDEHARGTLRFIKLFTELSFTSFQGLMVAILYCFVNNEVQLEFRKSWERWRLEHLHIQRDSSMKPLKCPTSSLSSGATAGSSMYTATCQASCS
SCTR, sequence (P47872 23-440): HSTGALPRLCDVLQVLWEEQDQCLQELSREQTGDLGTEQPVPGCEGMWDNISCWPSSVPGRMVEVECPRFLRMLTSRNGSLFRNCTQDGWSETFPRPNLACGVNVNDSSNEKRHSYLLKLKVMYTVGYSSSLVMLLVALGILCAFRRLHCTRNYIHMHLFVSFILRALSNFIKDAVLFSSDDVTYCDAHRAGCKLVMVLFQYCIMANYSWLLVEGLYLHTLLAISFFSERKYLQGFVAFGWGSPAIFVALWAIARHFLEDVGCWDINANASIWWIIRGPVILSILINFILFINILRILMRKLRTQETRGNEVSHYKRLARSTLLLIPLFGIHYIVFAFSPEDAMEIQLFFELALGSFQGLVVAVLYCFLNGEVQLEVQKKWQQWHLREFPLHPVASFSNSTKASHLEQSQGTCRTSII

On to `CC(C)C[C@H](NC(=O)[C@H](Cc1ccccc1)NC(=O)[C@H](CCCNC(=N)N)NC(=O)[C@H](CCC(N)=O)NC(=O)[C@H](CCC(=O)O)NC(=O)[C@H](C)NC(=O)[C@H](C)NC(=O)[C@H](CCC(=O)O)NC(=O)[C@H](CCC(=O)O)NC(=O)[C@H](CCCCNC(=O)COCCOCCNC(=O)COCCOCCNC(=O)CC[C@H](NC(=O)CCCCCCCCCCCCCCCCCCC(=O)O)C(=O)O)NC(=O)[C@H](CC(C)C)NC(=O)[C@H](Cc1ccc(O)cc1)NC(=O)[C@H](CO)NC(=O)[C@@H](NC(=O)[C@H](CC(=O)O)NC(=O)[C@H](CO)NC(=O)[C@@H](NC(=O)[C@H](Cc1ccccc1)NC(=O)[C@@H](NC(=O)CNC(=O)[C@H](CCC(=O)O)NC(=O)C(C)(C)NC(=O)[C@@H](N)Cc1c[nH]cn1)[C@@H](C)O)[C@@H](C)O)C(C)C)C(=O)N[C@@H](CCC(=O)O)C(=O)N[C@@H](Cc1c[nH]cn1)C(=O)N[C@@H](CC(C)C)C(=O)N[C@H](C(N)=O)C(C)C` [compound 95] (H-H[Aib]EGTFTSDVSYLK([AEEA-AEEA-γGlu-C20 diacid])EEAAEQRFLEHLV-NH2), for which the EC50 in data set [1] (setting [5]) was 15800 nM; in data set [3] (setting [6]), 0.02 nM. Further, the “Turbidity (pH 7)” value in data set [2] amounted to 0.08. For the same compound, the “SCTR EC50/GLP1R EC50 ratio” value in data set [3] is recorded as 840427. Further, in data set [4], the Fibril formation amounted to 10160.

Take `CC(C)C[C@H](NC(=O)[C@H](CCC(=O)O)NC(=O)[C@H](CCCCNC(=O)COCCOCCNC(=O)COCCOCCNC(=O)CC[C@H](NC(=O)CCCCCCCCCCCCCCCCCCC(=O)O)C(=O)O)NC(=O)[C@H](CC(C)C)NC(=O)[C@@H](NC(=O)[C@H](CO)NC(=O)[C@@H](NC(=O)[C@H](CC(=O)O)NC(=O)[C@H](CO)NC(=O)[C@@H](NC(=O)[C@H](Cc1ccccc1)NC(=O)[C@@H](NC(=O)CNC(=O)[C@H](CCC(=O)O)NC(=O)C(C)(C)NC(=O)[C@@H](N)Cc1c[nH]cn1)[C@@H](C)O)[C@@H](C)O)C(C)C)[C@@H](C)O)C(=O)N[C@@H](C)C(=O)N[C@@H](C)C(=O)N[C@@H](C)C(=O)N[C@@H](CCC(N)=O)C(=O)N[C@@H](CCCNC(=N)N)C(=O)N[C@@H](Cc1ccccc1)C(=O)N[C@@H](CC(C)C)C(=O)N[C@@H](CCC(=O)O)C(=O)N[C@@H](Cc1c[nH]cn1)C(=O)N[C@@H](CC(C)C)C(=O)N[C@H](C(N)=O)C(C)C` [compound 11] (H-H[Aib]EGTFTSDVSTLK([AEEA-AEEA-γGlu-C20 diacid])ELAAAQRFLEHLV-NH2): the pEC50 in data set [1] is 6.20. For the same compound, the “Turbidity (pH 7)” value in data set [2] came out at 0.08. Moreover, in data set [3], the negative-log EC50 (pEC50) is 10.30 and the Selectivity is given as 11347. The compound also returned a Fibril formation in data set [4] of 7854.

As to `CC[C@H](C)[C@H](NC(=O)[C@H](Cc1ccccc1)NC(=O)[C@H](CCCNC(=N)N)NC(=O)[C@H](CCC(N)=O)NC(=O)[C@H](CC(C)C)NC(=O)[C@H](C)NC(=O)[C@H](C)NC(=O)CNC(=O)[C@H](CCC(=O)O)NC(=O)[C@H](CC(C)C)NC(=O)[C@H](CC(C)C)NC(=O)[C@H](Cc1c[nH]c2ccccc12)NC(=O)[C@H](CO)NC(=O)[C@@H]1CCCN1C(=O)[C@H](CC(=O)O)NC(=O)[C@H](CO)NC(=O)[C@@H](NC(=O)[C@H](Cc1ccccc1)NC(=O)[C@@H](NC(=O)CNC(=O)[C@H](CCC(=O)O)NC(=O)C(C)(C)NC(=O)[C@@H](N)Cc1c[nH]cn1)[C@@H](C)O)[C@@H](C)O)C(=O)N[C@@H](CCC(N)=O)C(=O)N[C@@H](Cc1c[nH]c2ccccc12)C(=O)N[C@@H](CC(C)C)C(=O)N[C@H](C(N)=O)C(C)C` [compound 127] (H-H[Aib]EGTFTSDPSWLLEGAALQRFIQWLV-NH2), the EC50 in data set [1] (setting [5]) was 3980 nM; in data set [3] (setting [6]), 7.94 nM. In addition, the “Turbidity (pH 7)” value in data set [2] is listed as 0.19. Also, in data set [3], the “SCTR EC50/GLP1R EC50 ratio” value came out at 464. In data set [4], this compound showed a Fibril formation of 11084.

On to `CC(C)C[C@H](NC(=O)[C@H](Cc1ccccc1)NC(=O)[C@H](CCCNC(=N)N)NC(=O)[C@H](CCC(N)=O)NC(=O)[C@H](CO)NC(=O)[C@H](C)NC(=O)[C@H](C)NC(=O)C(C)(C)NC(=O)[C@H](CCC(=O)O)NC(=O)[C@H](CCCCNC(=O)COCCOCCNC(=O)COCCOCCNC(=O)CC[C@H](NC(=O)CCCCCCCCCCCCCCCCCCC(=O)O)C(=O)O)NC(=O)[C@H](CC(C)C)NC(=O)[C@H](Cc1ccccc1)NC(=O)[C@H](CO)NC(=O)[C@@H](NC(=O)[C@H](CC(=O)O)NC(=O)[C@H](CO)NC(=O)[C@@H](NC(=O)[C@H](Cc1ccccc1)NC(=O)[C@@H](NC(=O)CNC(=O)[C@H](CCC(=O)O)NC(=O)C(C)(C)NC(=O)[C@@H](N)Cc1c[nH]cn1)[C@@H](C)O)[C@@H](C)O)C(C)C)C(=O)N[C@@H](CCC(=O)O)C(=O)N[C@@H](Cc1c[nH]cn1)C(=O)N[C@@H](CC(C)C)C(=O)N[C@H](C(N)=O)C(C)C` [compound 74] (H-H[Aib]EGTFTSDVSFLK([AEEA-AEEA-γGlu-C20 diacid])E[Aib]AASQRFLEHLV-NH2), for which the EC50 in data set [1] (setting [7]) was 12600 nM; in data set [3] (setting [8]), 0.0631 nM. Besides, the “Turbidity (pH 7)” value in data set [2] came to 0.08. The Selectivity in data set [3] came out at 231739. The same compound displayed a Fibril formation in data set [4] of 12039.

`CC(C)C[C@H](NC(=O)[C@H](Cc1ccccc1)NC(=O)[C@H](CCCNC(=N)N)NC(=O)[C@H](CCC(N)=O)NC(=O)[C@H](CCC(=O)O)NC(=O)[C@H](C)NC(=O)[C@H](C)NC(=O)[C@H](Cc1ccccc1)NC(=O)[C@H](CCC(=O)O)NC(=O)[C@H](CCCCNC(=O)COCCOCCNC(=O)COCCOCCNC(=O)CC[C@H](NC(=O)CCCCCCCCCCCCCCCCCCC(=O)O)C(=O)O)NC(=O)[C@H](CC(C)C)NC(=O)[C@H](CCCNC(=N)N)NC(=O)[C@H](CO)NC(=O)[C@@H](NC(=O)[C@H](CC(=O)O)NC(=O)[C@H](CO)NC(=O)[C@@H](NC(=O)[C@H](Cc1ccccc1)NC(=O)[C@@H](NC(=O)CNC(=O)[C@H](CCC(=O)O)NC(=O)C(C)(C)NC(=O)[C@@H](N)Cc1c[nH]cn1)[C@@H](C)O)[C@@H](C)O)C(C)C)C(=O)N[C@@H](CCC(=O)O)C(=O)N[C@@H](Cc1c[nH]cn1)C(=O)N[C@@H](CC(C)C)C(=O)N[C@H](C(N)=O)C(C)C` [compound 72] (H-H[Aib]EGTFTSDVSRLK([AEEA-AEEA-γGlu-C20 diacid])EFAAEQRFLEHLV-NH2): the EC50 was 1000 nM in data set [1] (setting [7]) and 0.1 nM in data set [3] (setting [8]). In addition, in data set [2], the “Turbidity (pH 7)” value turned out to be 0.08. The Selectivity in data set [3] is given as 9251. This compound also returned a Fibril formation in data set [4] of 96622.

`CC(C)C[C@H](NC(=O)[C@H](Cc1ccccc1)NC(=O)[C@H](CCCNC(=N)N)NC(=O)[C@H](CCC(N)=O)NC(=O)[C@H](CCC(N)=O)NC(=O)[C@H](C)NC(=O)[C@H](C)NC(=O)C(C)(C)NC(=O)[C@H](CCC(=O)O)NC(=O)[C@H](CCCCNC(=O)COCCOCCNC(=O)COCCOCCNC(=O)CC[C@H](NC(=O)CCCCCCCCCCCCCCCCCCC(=O)O)C(=O)O)NC(=O)[C@H](CC(C)C)NC(=O)[C@H](CCC(=O)O)NC(=O)[C@H](CO)NC(=O)[C@@H](NC(=O)[C@H](CC(=O)O)NC(=O)[C@H](CO)NC(=O)[C@@H](NC(=O)[C@H](Cc1ccccc1)NC(=O)[C@@H](NC(=O)CNC(=O)[C@H](CCC(=O)O)NC(=O)C(C)(C)NC(=O)[C@@H](N)Cc1c[nH]cn1)[C@@H](C)O)[C@@H](C)O)C(C)C)C(=O)N[C@@H](CCC(=O)O)C(=O)N[C@@H](Cc1c[nH]cn1)C(=O)N[C@@H](CC(C)C)C(=O)N[C@H](C(N)=O)C(C)C` [compound 5] (H-H[Aib]EGTFTSDVSELK([AEEA-AEEA-γGlu-C20 diacid])E[Aib]AAQQRFLEHLV-NH2): the EC50 is 79.4 nM in data set [1] (setting [7]) and 0.0126 nM in data set [3] (setting [8]). Moreover, the “Turbidity (pH 7)” value in data set [2] came to 0.09. Besides, in data set [3], the Selectivity is given as 6907. Also, the Fibril formation in data set [4] is 14563.
